This is an account of results in patent US20180148514A1, “MULTIVALENT MEDITOPES, MEDITOPE-BINDING ANTIBODIES AND USES THEREOF” (City of Hope, priority 2014, published 2018).

Data set [1] has as its system MDA-MB-468 cells. Nature of the data set: FACS binding of meditopes to MDA-MB-468 cells pre-treated with cetuximab or M425. It counts as cell-based. To be noted: with or without cetuximab or M425 pre-treatment. In general terms: Flow cytometry measures light scatter and fluorescence of single cells or particles in a stream.
The target of data set [2] is pertuzumab I83E IgG. Nature of the data set: SPR, meditope binding to immobilized pertuzumab I83E IgG. The conditions noted are these: two fold dilutions from approximately 10 um to 156 nM. The method, then:
The binding of a meditope to a meditope-enabled antibody containing the I83E modification was next examined in an in vitro binding study using surface plasmon resonance (SPR) and a meditope enabled antibody pertuzumab with the I83E modification. […] Concentrations were two fold dilutions from approximately 10 um to 156 nM. […] Further optimization of the experiment will be required due to the long off rate observed.

The test system of data set [3] is CLL patients. The conditions noted are these: cited from earlier work.
The mark [4] stands for this setting: Phase I, 46 heavily pretreated CLL patients, single agent.

For the substance C-QFDLSTRRLK-C [cQFD], in data set [1], the “binding to cells (FACS)” value is “bound to EGFR positive MD-MBA-468 cells only in the presence of cetuximab”. Further, the Kd fit result in data set [2] was “no Kd could be fit to the data”.
On to “lumiliximab: primatized anti-CD23 mAb with cynomolgus macaque variable regions and human constant regions (IgG1-κ)”, for which, in data set [3] (setting [4]), the objective responses entry was “no objective Complete Responses (CRs) or Partial Responses (PRs) were observed”, the “patients with decreased peripheral blood lymphocyte counts” value was 91% and the “patients with reduced enlarged lymph node size” value was 52%. Moreover, in data set [3] (human, in vivo), the “MTD (maximum tolerated dose)” value was “not reached” and the immunosuppression entry is “not immunosuppressive”. Besides, the “adverse events (AEs)” value in data set [3] (majority of AEs) is reported as “limited to grade 1/2”.
